Residues, ends and D or L forms follow the SMILES beside them.
Legend:
Mcl-1 [1] = molecular target: T1, Mcl-1 (Mus musculus, UniProt P97287); assay: Direct FP binding assay of fluorescein-conjugated peptides; conditions: read-out: Kd toward Mcl-1, N-terminal fluorescein-conjugated peptides
Bcl-xL [2] = molecular target: T2, Bcl-xL (Homo sapiens, UniProt Q07817); assay: as above
Stability in mouse serum = type: in vitro ADME; conditions: for half-life: mouse
[3] = test system: Mcl-1-overexpressing U937 cells; conditions: for Activity in cell viability assay: U937 cells
[4] = Far-UV CD measurement of percent helicity; type: physicochemical; conditions: for Percent helicity: 50 μM in ACN/H2O (1:1), calculated from [θ]222
Mcl-1 [5] = molecular target: T1, Mcl-1; assay: Competitive fluorescence polarization; type: binding; conditions: competitive FP assay
Bcl-2 = conditions: cited from earlier work
Bcl-xL [6] = molecular target: T2, Bcl-xL; conditions: cited from earlier work
Mcl-1 [7] = molecular target: T1, Mcl-1; conditions: cited from earlier work

T1 sequence (P97287 whole entry): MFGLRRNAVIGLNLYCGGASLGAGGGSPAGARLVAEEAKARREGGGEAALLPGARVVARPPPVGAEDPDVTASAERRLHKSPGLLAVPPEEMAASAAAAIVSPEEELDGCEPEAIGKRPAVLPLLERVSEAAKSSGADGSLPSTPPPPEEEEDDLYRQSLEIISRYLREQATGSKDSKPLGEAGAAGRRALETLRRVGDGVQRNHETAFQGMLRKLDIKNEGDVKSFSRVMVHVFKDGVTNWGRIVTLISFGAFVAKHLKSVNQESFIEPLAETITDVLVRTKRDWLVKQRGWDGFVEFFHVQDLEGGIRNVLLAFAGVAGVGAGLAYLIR
T2 sequence (Q07817 whole entry, species assumed): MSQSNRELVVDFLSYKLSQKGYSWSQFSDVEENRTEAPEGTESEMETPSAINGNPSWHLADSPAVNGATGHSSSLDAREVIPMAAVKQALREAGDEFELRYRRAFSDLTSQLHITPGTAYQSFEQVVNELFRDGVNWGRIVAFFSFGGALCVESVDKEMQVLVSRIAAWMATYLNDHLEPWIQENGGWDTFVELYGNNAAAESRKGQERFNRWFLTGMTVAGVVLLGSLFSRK

Structure (SMILES)	half-life (Stability in mouse serum) [h]	Activity in cell viability assay ([3]; 20 μM peptide, 48 hours)	Percent helicity [4] [%]	Increase in stability in mouse serum relative to linear Noxa peptide (Stability in mouse serum) [fold]	Increase in inhibitory activity compared to parent Noxa peptide (Mcl-1 [5]) [fold]	further results
CC[C@H](C)[C@H](NC(=O)[C@H](CCCNC(=N)N)NC(=O)[C@H](CCCNC(=N)N)NC(=O)[C@H](CC(C)C)NC(=O)[C@H](CCC(N)=O)NC(=O)[C@H](C)NC(=O)[C@H](C)NC(C)=O)C(=O)NCC(=O)N[C@@H](CC(=O)O)C(=O)N[C@@H](CCCCN)C(=O)N[C@H](C(=O)N[C@@H](CC(N)=O)C(=O)N[C@@H](CC(C)C)C(=O)N[C@@H](CCCNC(=N)N)C(=O)N[C@@H](CCC(N)=O)C(=O)N[C@@H](CCCCN)C(=O)N[C@@H](CC(C)C)C(=O)N[C@@H](CC(C)C)C(=O)N[C@@H](CC(N)=O)C(N)=O)C(C)C [Noxa, reference compound]	0.175 ± 0.0383	no activity	–	–	–	Kd (Mcl-1 [1]): 6.7 ± 1 nM; Kd (Bcl-xL [2]): > 1000 nM; Cell viability ([3]; ATP assay, U937 cells in RPMI1640 with 5% FBS, 20 μM peptide, 48 hours): 97.6±0.9%
CC[C@H](C)[C@@H]1NC(=O)[C@H](C)NC(=O)[C@H](CCCNC(=N)N)NC(=O)[C@H](CC(C)C)NC(=O)[C@H](NC(=O)[C@H](C)N(C)C(=O)[C@H](C)N(C)C(=O)OC)CSCc2ccc(cc2)-c2ccc(cc2)CSC[C@@H](C(=O)N[C@H](C(=O)N[C@@H](CC(N)=O)C(=O)N[C@@H](CC(C)C)C(=O)N[C@@H](C)C(=O)N[C@@H](CCC(N)=O)C(=O)N[C@@H](C)C(=O)N[C@@H](CC(C)C)C(=O)N[C@@H](CC(C)C)C(=O)N[C@@H](CC(N)=O)C(N)=O)C(C)C)NC(=O)[C@H](CC(=O)O)NC(=O)CNC1=O [compound 8] (HELM PEPTIDE1{[COC(=O)[*:2]].[meA].[meA].[dC].L.R.A.I.G.D.C.V.N.L.A.Q.A.L.L.N.[am]}|CHEM1{[c1cc(-c2ccc(C[*:2])cc2)ccc1C[*:1]]}$PEPTIDE1,CHEM1,4:R3-1:R1|PEPTIDE1,CHEM1,11:R3-1:R2$$$V2.0)	21.2 ± 2.6	–	52	121	–	EC50 ([3]; 48 h): 13400 nM
CC[C@H](C)[C@@H]1NC(=O)[C@H](CCCNC(=N)N)NC(=O)[C@H](CCCNC(=N)N)NC(=O)[C@H](CC(C)C)NC(=O)[C@@H](NC(=O)[C@H](C)NC(=O)[C@H](C)NC(C)=O)CSCc2ccc(cc2)-c2ccc(cc2)CSC[C@@H](C(=O)N[C@H](C(=O)N[C@@H](CC(N)=O)C(=O)N[C@@H](CC(C)C)C(=O)N[C@@H](CCCNC(=N)N)C(=O)N[C@@H](CCC(N)=O)C(=O)N[C@@H](CCCCN)C(=O)N[C@@H](CC(C)C)C(=O)N[C@@H](CC(C)C)C(=O)N[C@@H](CC(N)=O)C(N)=O)C(C)C)NC(=O)[C@H](CC(=O)O)NC(=O)CNC1=O [compound 1]	–	no activity	–	–	65	–
CC[C@H](C)[C@@H]1NC(=O)[C@H](CCCNC(=N)N)NC(=O)[C@H](CCCNC(=N)N)NC(=O)[C@H](CC(C)C)NC(=O)[C@H](NC(=O)[C@H](C)NC(=O)[C@H](C)NC(C)=O)CSCc2ccc(cc2)-c2ccc(cc2)CSC[C@@H](C(=O)N[C@H](C(=O)N[C@@H](CC(N)=O)C(=O)N[C@@H](CC(C)C)C(=O)N[C@@H](CCCNC(=N)N)C(=O)N[C@@H](CCC(N)=O)C(=O)N[C@@H](CCCCN)C(=O)N[C@@H](CC(C)C)C(=O)N[C@@H](CC(C)C)C(=O)N[C@@H](CC(N)=O)C(N)=O)C(C)C)NC(=O)[C@H](CC(=O)O)NC(=O)CNC1=O [compound 2]	–	no activity	–	–	12	–
CN(C)CC[C@H](CSc1ccccc1)Nc1ccc(S(=O)(=O)NC(=O)c2ccc(N3CCN(Cc4ccccc4-c4ccc(Cl)cc4)CC3)cc2)cc1[N+](=O)[O-] [ABT-737]	–	–	–	–	–	Binding affinity to Bcl-2 (Bcl-2): subnanomolar affinity; Binding affinity to Bcl-xL (Bcl-xL [6]): subnanomolar affinity; Binding to Mcl-1 (Mcl-1 [7]): poorly
CC[C@H](C)[C@@H]1NC(=O)[C@H](C)NC(=O)[C@H](CCCNC(=N)N)NC(=O)[C@H](CC(C)C)NC(=O)[C@H](NC(=O)[C@H](C)NC(=O)[C@H](C)NC(C)=O)CSCc2ccc(cc2)-c2ccc(cc2)CSC[C@@H](C(=O)N[C@H](C(=O)N[C@@H](CC(N)=O)C(=O)N[C@@H](CC(C)C)C(=O)N[C@@H](C)C(=O)N[C@@H](CCC(N)=O)C(=O)N[C@@H](C)C(=O)N[C@@H](CC(C)C)C(=O)N[C@@H](CC(C)C)C(=O)N[C@@H](CC(N)=O)C(N)=O)C(C)C)NC(=O)[C@H](CC(=O)O)NC(=O)CNC1=O [compound 5] (HELM PEPTIDE1{[ac].A.A.[dC].L.R.A.I.G.D.C.V.N.L.A.Q.A.L.L.N.[am]}|CHEM1{[c1cc(-c2ccc(C[*:2])cc2)ccc1C[*:1]]}$PEPTIDE1,CHEM1,4:R3-1:R1|PEPTIDE1,CHEM1,11:R3-1:R2$$$V2.0)	31.6 ± 2.2	–	66	180	–	Increase in helicity, 5 compared to 2 [4]: more than twofold

Source: article PMC3472523 (Journal of the American Chemical Society, 2012)
